Measured values: patent publication US20220264883A1, “IMIDAZOTHIAZOLE COMPOUNDS AND METHODS FOR TREATING PLANT NEMATODE INFECTIONS” (The Governing Council of the University of Toronto, priority 2019, published 2022)

Tests used:
[1] = test system: M. chitwoodi; experiment: Meloidogyne chitwoodi infectivity assays (tomato roots in soil); type: in vivo; conditions: 45 μM in soil, 8 weeks, egg counts relative to DMSO control
Experimental: An M. incognita population originally collected from grape (Vitis vinifera) in Parlier, Calif., was used for all experiments, and they were maintained on tomato plants (Solanum lycopersicum ‘Rutgers’) as previously described^73. Infective J2 juveniles were collected as described in^73. For the infectivity assays, 90 grams of soil (1:1 sand:loam mix) was added to each cell of several 6-cell plastic garden packs. The soil was drenched with 18 mL of deionized water containing dissolved chemical or DMSO alone. 2,500 infective J2 juveniles were then added to the soil in 2 mL of deionized water, for a total water volume of 20 mL. The final concentration of the chemicals in water was 45 μM. The DMSO concentration varied from 0.1% to 0.8% (v/v) depending on the stock concentration of the chemical. The highest DMSO concentration was used as the DMSO control. The J2s were incubated in the soil and chemical for 24 hours, after which two- to three-week old tomato seedlings were transplanted into the soil (one plant per cell). […] The number of eggs from each plant root was counted on a dissection microscope using a haemocytometer, and the number of eggs per milligram of root was calculated by dividing the total egg number by the mass of the dried root material. […] An average percent effectiveness value was then calculated across the two different batches carried out on different days. […]

[2] = test system: Arabidopsis thaliana; experiment: Arabidopsis thaliana greening experiments; type: in vivo; conditions: 5, 15 and 45 micromolar, greening after 4 days
Experimental: Greening experiments were performed with Arabidopsis thaliana seeds of wild type Col-0; seeds were surface sterilized in bleach and plated onto 0.5×MS, 0.5% sucrose agar medium supplemented with compounds of interest at 5, 15 and 45 μM concentrations. After 4 d of stratification at 4° C., plates were transferred to a growth chamber (16 h/8 h, 150 μE/m^2) and greening recorded after 4 days. Pictures were recorded by camera (SONY a7s) with FE1.8/55 lens (FE 55 mm F1.8 ZA; SEL55F18Z). Experiments were performed in triplicate for each treatment.

[3] = test system: M. incognita; experiment: Meloidogyne incognita infectivity assays (tomato roots in soil); type: in vivo; conditions: 45 μM in soil, 8 weeks, eggs per mg root relative to DMSO control
Experimental: An M. incognita population originally collected from grape (Vitis vinifera) in Parlier, Calif., was used for all experiments, and they were maintained on tomato plants (Solanum lycopersicum ‘Rutgers’) as previously described^73. Infective J2 juveniles were collected as described in^73. For the infectivity assays, 90 grams of soil (1:1 sand:loam mix) was added to each cell of several 6-cell plastic garden packs. The soil was drenched with 18 mL of deionized water containing dissolved chemical or DMSO alone. 2,500 infective J2 juveniles were then added to the soil in 2 mL of deionized water, for a total water volume of 20 mL. The final concentration of the chemicals in water was 45 μM. The DMSO concentration varied from 0.1% to 0.8% (v/v) depending on the stock concentration of the chemical. The highest DMSO concentration was used as the DMSO control. The J2s were incubated in the soil and chemical for 24 hours, after which two- to three-week old tomato seedlings were transplanted into the soil (one plant per cell). Two replicates were performed for each chemical treatment, and four replicates were done for the DMSO controls. The whole experiment was replicated twice, in two different batches on two different days, for a total of four replicates for each chemical treatment, and eight replicates for the DMSO controls. Inoculated plants were grown for 8 weeks in a greenhouse, as described^73, under long-day conditions (16-h photoperiod) with 26/18° C. day/night temperatures. After 8 weeks, the plants were destructively harvested. The tops were removed and discarded, and roots were gently washed with water to remove adhering soil. Eggs were extracted by placing rinsed roots in 0.6% sodium hypochlorite and agitating at 300 rpm for 3 min. Roots were then rinsed over nested 250- and 25.4-μm sieves, with eggs collected from the latter and suspended in water. Roots were dried in a 65° C. oven for at least 24 hours, after which dry roots were weighed. The number of eggs from each plant root was counted on a dissection microscope using a haemocytometer, and the number of eggs per milligram of root was calculated by dividing the total egg number by the mass of the dried root material. An average was taken across the replicates performed on the same day, and then normalized to the DMSO control average. To calculate percent effectiveness at inhibiting reproduction, the normalized values were subtracted from 1, and then multiplied by 100. An average percent effectiveness value was then calculated across the two different batches carried out on different days.

[4] = test system: C57BL/6 mice; experiment: Mouse studies (oral dosing, pathologies); type: in vivo; conditions: oral dose 50 mg/kg over several days
Experimental: Female C57BL/6 mice (bred in house, breeding pairs originally purchased from Charles River, Canada) 6-8 weeks of age were used for all experiments. Animal experiments were approved by the University of Calgary's Animal Care Committee. Infected mice were orally gavaged with a 200 third stage Heligmosomoides polygyrus larvae (maintained in house. Original stock was a gift from Dr. Allen Shostak, University of Alberta, Canada) and euthanized on day 22 post infection. […] Mice were treated orally with 5 daily doses of exemplary compound Ia (50 mg/kg resuspended in DMSO). Control mice were given DMSO only as a control.

[5] = test system: S. cerevisiae; experiment: Saccharomyces cerevisiae (budding yeast) dose-response experiments; type: cell-based; conditions: non-target system; growth over 18 hours
Experimental: A saturated culture of the yeast strain RY0568 was diluted to an OD600 of 0.015 with fresh YPD media (see ref. 62). 100 μL of this dilute yeast suspension was added to each well of a 96-well plate. The yeast were grown for 4 hours at 30° C. with shaking at 140 rpm. Using a multichannel pipette, 1 μL of chemical solution was added to each well to achieve the desired final concentrations. The final DMSO concentration was 1% (v/v). The microwell plate was then loaded into a TECAN plate reader set at 30° C. The OD600 of each well was measured over an 18-hour period, and the plate was shaken intermittently throughout the run. The areas under the resultant growth curves were calculated using R scripts adapted from those found in the MESS package. The area under the curve at each concentration of a dose-response assay was divided by the area under the curve for the corresponding DMSO control, resulting in a “relative fitness” value for each concentration tested. Three biological replicates were performed for each dose-response experiment, and the relative fitness values were averaged across the three replicates.

[6] = Limit of solubility / precipitation in assay media; type: physicochemical; conditions: 100 μM in water, 0.5% DMSO (zebrafish assay)
[7] = test system: M. incognita J2 larvae; experiment: Meloidogyne incognita in vitro assays (J2 movement); type: in vivo; conditions: 45 μM, 2 days, relative to DMSO control
Experimental: M. incognita (Kofoid & White) Chitwood Race 1 (originally isolated in Maryland) was used for all experiments, and was maintained on pepper (Capsicum annuum L.) cv. PA-136 in a greenhouse as previously described^64. Infective J2 juveniles were collected as described in ref.65. The microwell dose-response experiments were carried out similarly to previously described protocols^64, 66. In brief, 100 J2s, in 10 μL of deionized water, were added to the wells of 96-well polystyrene plates, after which 190 μL of deionized water containing dissolved chemical, or DMSO alone, was added to each well. The chemicals were tested at 45 μM, and the final concentration of DMSO in each well was 0.5% (v/v). The wells were covered with a plastic adhesive strip, and the lids of the plates were sealed with parafilm. The plates were incubated at 25° C. The mobile fraction of worms was quantified by counting the number of mobile and immobile worms after 2 days of incubation, and then dividing the number of mobile worms by the total number of worms in the well. Three technical replicates were performed for each treatment, and an average value for the mobile fraction of worms was calculated across the three replicates. The percent effectiveness at inhibiting nematode movement was calculated by dividing the average value for the chemical treatment by the average value for the DMSO control, then subtracting this value from 1, and then multiplying by 100.

## Clc1ccc(-c2cn3ccsc3n2)cc1 [Ia]
[1]
  % effectiveness at inhibiting reproduction of M. chitwoodi: 42.6%
[2]
  effect on health and greening of Arabidopsis thaliana plants (phytotoxicity): some phytotoxicity and yellowing at the highest concentration
[3]
  % effectiveness at inhibiting reproduction of M. incognita: 27.1%
[4]
  obvious pathologies in comparison with the solvent control: did not exhibit any obvious pathologies
[5]
  S. cerevisiae LC50: inactive
[6]
  compound precipitation: Some compound precipitation was observed

## Cc1csc2nc(-c3ccccc3)cn12 [Compound Ie]
[7]
  % effectiveness at reducing M. incognita movement: 4.9%
